{"source": "ChEMBL document CHEMBL5696442", "about": "“Discovery of type II inhibitors of TGFβ-activated kinase 1 (TAK1) and mitogen-activated protein kinase kinase kinase kinase 2 (MAP4K2)” (J Med Chem, 2015)", "key": {"[1]": {"target": "Tyrosine-protein kinase Fes/Fps (Homo sapiens, UniProt P07332)", "sequence (P07332 whole entry)": "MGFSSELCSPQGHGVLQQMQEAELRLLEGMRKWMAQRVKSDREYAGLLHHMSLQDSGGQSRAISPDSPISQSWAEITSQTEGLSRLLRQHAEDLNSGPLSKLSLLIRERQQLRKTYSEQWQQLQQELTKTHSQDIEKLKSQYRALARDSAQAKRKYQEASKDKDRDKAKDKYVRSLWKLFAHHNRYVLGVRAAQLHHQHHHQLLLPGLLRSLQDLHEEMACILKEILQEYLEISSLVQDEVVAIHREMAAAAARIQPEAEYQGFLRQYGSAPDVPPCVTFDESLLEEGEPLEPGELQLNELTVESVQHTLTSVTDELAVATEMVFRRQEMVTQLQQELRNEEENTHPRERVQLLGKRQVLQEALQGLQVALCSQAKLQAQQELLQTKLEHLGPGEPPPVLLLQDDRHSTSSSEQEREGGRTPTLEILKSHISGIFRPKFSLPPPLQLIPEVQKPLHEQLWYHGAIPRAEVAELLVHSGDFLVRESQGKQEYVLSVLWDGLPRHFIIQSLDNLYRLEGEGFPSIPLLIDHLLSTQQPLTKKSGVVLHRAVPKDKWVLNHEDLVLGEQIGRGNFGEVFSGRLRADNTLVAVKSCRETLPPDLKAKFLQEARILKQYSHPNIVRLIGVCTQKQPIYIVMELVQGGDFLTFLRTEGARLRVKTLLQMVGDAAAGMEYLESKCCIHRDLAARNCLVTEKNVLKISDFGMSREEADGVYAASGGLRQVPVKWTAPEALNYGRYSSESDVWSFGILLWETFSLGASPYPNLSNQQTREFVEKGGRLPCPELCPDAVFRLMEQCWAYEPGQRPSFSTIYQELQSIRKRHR", "assay": "Inhibition of FES K1 labeling site in human Huh-7 cells at 1 uM by KiNativ Profiling analysis relative to control", "assay_type": "cell-based"}, "[2]": {"target": "Ribosomal protein S6 kinase alpha-1 (Homo sapiens) (UniProt Q15418)", "sequence (Q15418 whole entry, the tested form may be a part)": "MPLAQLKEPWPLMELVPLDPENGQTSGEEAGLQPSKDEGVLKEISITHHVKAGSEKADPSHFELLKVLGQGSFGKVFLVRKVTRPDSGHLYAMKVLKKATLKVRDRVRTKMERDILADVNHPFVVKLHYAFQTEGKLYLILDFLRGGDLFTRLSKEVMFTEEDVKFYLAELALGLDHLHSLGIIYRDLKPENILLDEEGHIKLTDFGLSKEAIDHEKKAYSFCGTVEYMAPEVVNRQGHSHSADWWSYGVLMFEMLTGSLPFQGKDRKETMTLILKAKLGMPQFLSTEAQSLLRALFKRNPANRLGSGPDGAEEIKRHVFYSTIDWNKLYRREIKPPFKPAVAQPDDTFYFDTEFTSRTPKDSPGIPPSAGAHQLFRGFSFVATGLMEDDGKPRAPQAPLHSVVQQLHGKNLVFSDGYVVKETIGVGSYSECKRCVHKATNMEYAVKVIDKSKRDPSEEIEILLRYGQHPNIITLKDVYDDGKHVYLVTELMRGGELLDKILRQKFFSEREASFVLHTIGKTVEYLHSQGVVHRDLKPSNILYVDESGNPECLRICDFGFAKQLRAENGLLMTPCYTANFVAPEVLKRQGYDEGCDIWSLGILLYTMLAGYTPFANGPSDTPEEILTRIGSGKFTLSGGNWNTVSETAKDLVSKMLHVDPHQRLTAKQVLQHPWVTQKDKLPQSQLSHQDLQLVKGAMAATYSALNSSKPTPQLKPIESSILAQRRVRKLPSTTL", "assay": "Inhibition of RSK1 domain1 Lys1 labeling site in human A-375 cells at 0.5 uM by KiNativ Profiling analysis relative to control", "assay_type": "cell-based"}, "[3]": {"target": "T1, Mitogen-activated protein kinase kinase kinase 5 (Homo sapiens) (UniProt Q99683)", "T1 sequence (whole entry)": "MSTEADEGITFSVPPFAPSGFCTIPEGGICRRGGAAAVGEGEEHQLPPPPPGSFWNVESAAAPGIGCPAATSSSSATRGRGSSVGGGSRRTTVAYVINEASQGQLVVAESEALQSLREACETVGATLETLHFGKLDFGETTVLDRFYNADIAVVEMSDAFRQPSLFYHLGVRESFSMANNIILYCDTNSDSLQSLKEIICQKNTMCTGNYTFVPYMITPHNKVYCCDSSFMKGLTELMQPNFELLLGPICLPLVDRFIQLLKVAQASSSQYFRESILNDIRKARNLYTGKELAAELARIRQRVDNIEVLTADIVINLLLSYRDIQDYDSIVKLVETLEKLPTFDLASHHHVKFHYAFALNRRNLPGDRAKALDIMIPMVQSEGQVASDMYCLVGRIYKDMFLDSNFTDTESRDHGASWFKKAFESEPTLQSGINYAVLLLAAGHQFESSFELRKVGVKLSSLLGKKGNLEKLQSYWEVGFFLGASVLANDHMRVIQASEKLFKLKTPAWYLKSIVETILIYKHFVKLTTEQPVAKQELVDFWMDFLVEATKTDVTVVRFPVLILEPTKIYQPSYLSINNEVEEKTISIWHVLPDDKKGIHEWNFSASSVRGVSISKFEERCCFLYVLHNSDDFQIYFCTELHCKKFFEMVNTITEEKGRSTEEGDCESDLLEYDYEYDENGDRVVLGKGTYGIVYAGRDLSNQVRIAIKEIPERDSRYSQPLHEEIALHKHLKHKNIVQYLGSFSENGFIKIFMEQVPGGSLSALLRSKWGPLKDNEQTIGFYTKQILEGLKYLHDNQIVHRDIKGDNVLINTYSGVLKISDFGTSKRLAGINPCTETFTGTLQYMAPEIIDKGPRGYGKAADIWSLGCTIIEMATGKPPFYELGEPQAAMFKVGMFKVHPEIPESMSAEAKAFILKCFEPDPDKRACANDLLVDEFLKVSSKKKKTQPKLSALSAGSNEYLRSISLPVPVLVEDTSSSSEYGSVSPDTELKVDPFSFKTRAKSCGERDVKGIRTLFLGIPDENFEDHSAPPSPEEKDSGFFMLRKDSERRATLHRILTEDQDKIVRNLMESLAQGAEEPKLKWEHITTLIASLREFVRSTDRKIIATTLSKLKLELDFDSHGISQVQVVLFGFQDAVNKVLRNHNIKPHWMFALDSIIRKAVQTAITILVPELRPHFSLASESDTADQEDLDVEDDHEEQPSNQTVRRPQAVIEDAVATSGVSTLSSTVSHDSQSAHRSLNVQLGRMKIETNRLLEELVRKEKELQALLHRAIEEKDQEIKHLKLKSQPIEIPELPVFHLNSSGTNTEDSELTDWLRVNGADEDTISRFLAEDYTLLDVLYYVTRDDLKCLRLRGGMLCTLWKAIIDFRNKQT", "assay": "Inhibition of MAP3K5 Lys1 labeling site harbouring IAIKEIPER in human A-375 cells at 0.05 uM by KiNativ Profiling analysis relative to control", "assay_type": "cell-based"}, "[4]": {"target": "Mitogen-activated protein kinase kinase kinase 12 (Homo sapiens) (UniProt Q12852)", "sequence (Q12852 whole entry, looked up)": "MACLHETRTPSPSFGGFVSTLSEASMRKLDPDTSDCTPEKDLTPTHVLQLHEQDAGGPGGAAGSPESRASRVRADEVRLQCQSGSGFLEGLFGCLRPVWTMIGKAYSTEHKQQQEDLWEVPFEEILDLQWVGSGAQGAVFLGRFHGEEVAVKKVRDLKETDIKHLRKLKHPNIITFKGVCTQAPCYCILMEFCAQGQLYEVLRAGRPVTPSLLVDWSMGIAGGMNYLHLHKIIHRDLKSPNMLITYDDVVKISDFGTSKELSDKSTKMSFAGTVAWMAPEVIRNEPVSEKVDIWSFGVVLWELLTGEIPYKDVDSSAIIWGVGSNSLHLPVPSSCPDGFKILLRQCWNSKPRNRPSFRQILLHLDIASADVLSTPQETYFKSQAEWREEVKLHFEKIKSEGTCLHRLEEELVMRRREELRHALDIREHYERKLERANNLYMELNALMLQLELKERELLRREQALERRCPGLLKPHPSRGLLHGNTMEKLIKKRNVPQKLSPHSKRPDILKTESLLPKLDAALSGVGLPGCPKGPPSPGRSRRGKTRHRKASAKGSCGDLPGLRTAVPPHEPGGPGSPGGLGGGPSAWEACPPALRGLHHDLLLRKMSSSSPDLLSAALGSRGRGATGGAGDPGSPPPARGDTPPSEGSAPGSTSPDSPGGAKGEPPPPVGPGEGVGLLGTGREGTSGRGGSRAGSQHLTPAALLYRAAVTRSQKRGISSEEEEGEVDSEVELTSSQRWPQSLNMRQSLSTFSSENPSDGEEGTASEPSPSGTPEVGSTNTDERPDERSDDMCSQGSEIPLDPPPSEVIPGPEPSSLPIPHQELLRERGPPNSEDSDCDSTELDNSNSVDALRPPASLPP", "assay": "Inhibition of DLK Lys2 labeling site harbouring in human A-375 cells at 0.5 uM by KiNativ Profiling analysis relative to control"}, "[5]": {"target": "5'-AMP-activated protein kinase catalytic subunit alpha-1 (Homo sapiens) (UniProt Q13131)", "sequence (Q13131 whole entry, looked up)": "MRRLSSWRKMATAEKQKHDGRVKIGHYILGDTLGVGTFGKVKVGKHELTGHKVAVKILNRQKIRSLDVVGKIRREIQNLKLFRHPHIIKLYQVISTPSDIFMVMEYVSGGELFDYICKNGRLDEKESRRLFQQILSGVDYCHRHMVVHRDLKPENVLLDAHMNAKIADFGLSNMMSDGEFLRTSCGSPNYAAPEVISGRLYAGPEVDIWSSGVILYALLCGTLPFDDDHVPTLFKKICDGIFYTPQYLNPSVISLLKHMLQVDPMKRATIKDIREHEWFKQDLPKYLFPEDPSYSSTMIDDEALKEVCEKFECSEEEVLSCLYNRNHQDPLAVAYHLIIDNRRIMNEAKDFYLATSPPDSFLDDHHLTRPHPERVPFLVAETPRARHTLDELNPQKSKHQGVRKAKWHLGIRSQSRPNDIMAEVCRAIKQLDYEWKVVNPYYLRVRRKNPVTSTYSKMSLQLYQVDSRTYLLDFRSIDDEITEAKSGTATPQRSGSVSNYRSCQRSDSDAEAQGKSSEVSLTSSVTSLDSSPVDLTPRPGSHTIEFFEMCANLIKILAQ", "assay": "Inhibition of AMPKa1 Lys1 labeling site in human Huh-7 cells at 1 uM by KiNativ Profiling analysis relative to control", "assay_type": "cell-based"}, "[6]": {"target": "T2, Serine/threonine-protein kinase TAO2 (Homo sapiens) (UniProt Q9UL54)", "T2 sequence (whole entry)": "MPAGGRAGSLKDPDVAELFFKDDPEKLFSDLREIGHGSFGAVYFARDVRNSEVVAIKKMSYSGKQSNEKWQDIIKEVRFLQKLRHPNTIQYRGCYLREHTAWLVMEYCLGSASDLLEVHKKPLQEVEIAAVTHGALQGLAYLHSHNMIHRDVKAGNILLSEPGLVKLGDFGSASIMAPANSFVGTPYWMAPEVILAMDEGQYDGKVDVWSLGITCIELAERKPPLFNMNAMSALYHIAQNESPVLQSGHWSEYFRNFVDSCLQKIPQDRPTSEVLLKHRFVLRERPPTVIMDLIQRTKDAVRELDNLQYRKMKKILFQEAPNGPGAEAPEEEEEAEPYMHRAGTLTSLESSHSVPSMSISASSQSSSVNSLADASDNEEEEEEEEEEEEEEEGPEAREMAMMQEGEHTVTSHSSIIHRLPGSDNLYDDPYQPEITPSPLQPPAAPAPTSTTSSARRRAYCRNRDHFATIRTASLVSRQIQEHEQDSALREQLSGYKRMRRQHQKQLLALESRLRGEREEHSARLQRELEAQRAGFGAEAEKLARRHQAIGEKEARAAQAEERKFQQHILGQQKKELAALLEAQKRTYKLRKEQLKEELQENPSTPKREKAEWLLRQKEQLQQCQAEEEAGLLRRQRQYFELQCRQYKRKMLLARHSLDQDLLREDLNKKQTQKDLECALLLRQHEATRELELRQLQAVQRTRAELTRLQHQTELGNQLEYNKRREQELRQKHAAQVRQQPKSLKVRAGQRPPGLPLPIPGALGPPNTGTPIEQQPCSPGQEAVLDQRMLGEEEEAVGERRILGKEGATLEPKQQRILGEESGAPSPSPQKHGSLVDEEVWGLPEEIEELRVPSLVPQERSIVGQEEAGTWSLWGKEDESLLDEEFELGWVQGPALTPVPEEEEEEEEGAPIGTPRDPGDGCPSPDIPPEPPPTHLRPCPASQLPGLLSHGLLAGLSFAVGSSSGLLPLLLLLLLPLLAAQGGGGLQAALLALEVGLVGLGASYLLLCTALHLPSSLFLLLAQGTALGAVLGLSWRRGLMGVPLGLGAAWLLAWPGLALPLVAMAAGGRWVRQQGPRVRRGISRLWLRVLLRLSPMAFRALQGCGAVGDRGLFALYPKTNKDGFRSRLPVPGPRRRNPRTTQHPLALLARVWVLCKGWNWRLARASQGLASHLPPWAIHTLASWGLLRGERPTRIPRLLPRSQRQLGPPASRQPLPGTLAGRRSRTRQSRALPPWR", "assay": "Inhibition of TAO2 Lys2 labeling site in human Huh-7 cells at 1 uM by KiNativ Profiling analysis relative to control", "assay_type": "cell-based"}}}
{"compound": "CCN1CCN(Cc2ccc(NC(=O)c3ccc(C)c(Oc4ccnc5[nH]ccc45)c3)cc2C(F)(F)F)CC1", "values": [{"measurement": "inhibition", "setting": "[1]", "result": -4.5, "unit": "%"}, {"measurement": "inhibition", "setting": "[2]", "result": -0.7, "unit": "%"}, {"measurement": "inhibition", "setting": "[3]", "result": 10.8, "unit": "%"}]}
{"compound": "CCN1CCN(Cc2ccc(NC(=O)c3ccc(C)c(/C=C/c4cnc5[nH]ccc5c4OC)c3)cc2C(F)(F)F)CC1", "values": [{"measurement": "inhibition", "setting": "[4]", "result": 0.8, "unit": "%"}]}
{"compound": "CNc1cc(Oc2cc(C(=O)Nc3cc(N4CCN(C)CC4)cc(C(F)(F)F)c3)ccc2C)ncn1", "values": [{"measurement": "inhibition", "setting": "[5]", "result": -7.5, "unit": "%"}, {"measurement": "inhibition", "setting": "[6]", "result": 35.6, "unit": "%"}]}
